Measurements as given in BindingDB's records for patent US11433071 (Incyte Corporation; Incyte Holdings Corporation, 2022).

Each molecule was assayed against T1, Phosphatidylinositol 4,5-bisphosphate 3-kinase catalytic subunit delta isoform (Homo sapiens, UniProt O00329) (assay: PI3Kδ Scintillation Proximity Assay).
T1 sequence (O00329 whole entry): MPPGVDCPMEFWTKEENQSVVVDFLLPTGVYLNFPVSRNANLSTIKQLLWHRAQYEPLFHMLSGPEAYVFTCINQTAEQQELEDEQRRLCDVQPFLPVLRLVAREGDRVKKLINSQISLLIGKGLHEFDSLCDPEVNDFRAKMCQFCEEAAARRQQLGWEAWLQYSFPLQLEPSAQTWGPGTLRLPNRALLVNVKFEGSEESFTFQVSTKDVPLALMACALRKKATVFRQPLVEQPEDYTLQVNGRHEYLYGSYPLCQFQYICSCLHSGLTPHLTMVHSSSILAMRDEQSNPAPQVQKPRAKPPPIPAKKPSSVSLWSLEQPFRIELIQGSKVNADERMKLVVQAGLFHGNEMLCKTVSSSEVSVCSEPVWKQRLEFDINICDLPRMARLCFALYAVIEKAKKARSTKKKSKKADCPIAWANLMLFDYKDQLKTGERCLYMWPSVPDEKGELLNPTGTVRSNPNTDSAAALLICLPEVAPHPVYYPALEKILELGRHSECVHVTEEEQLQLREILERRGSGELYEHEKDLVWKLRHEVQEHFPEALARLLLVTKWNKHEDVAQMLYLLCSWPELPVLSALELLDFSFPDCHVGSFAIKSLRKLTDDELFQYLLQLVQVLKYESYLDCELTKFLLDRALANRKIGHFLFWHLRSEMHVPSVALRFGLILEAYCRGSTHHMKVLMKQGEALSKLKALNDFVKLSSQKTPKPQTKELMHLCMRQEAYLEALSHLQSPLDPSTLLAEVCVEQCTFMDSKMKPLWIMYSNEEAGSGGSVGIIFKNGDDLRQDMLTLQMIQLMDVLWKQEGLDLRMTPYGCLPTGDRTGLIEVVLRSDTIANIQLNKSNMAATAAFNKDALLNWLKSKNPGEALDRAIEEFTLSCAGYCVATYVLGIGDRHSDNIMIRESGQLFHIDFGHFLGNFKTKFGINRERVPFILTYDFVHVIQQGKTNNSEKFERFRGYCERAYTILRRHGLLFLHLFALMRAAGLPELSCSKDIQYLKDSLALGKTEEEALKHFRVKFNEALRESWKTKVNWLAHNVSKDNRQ
Protocol: The kinase reaction was conducted in polystyrene 384-well matrix white plate from Thermo Fisher Scientific in a final volume of 25 μL. Inhibitors were first diluted serially in DMSO and added to the plate wells before the addition of other reaction components. The final concentration of DMSO in the assay was 0.5%. The PI3K assays were carried out at room temperature in 20 mM MOPS, pH 6.7, 10 mM MgCl2, 5 mM DTT and CHAPS 0.03%. Reactions were initiated by the addition of ATP, the final reaction mixture consisted of 20 μM PIP2, 20 μM ATP, 0.2 μCi [γ-33P] ATP, 4 nM PI3Kδ. […] 25 mM EDTA, 400 µM ATP. The final concentration of SPA beads was 1.0 mg/mL. After the plate sealing, plates were shaken overnight at room temperature and centrifuged at 1800 rpm for 10 minutes, the radioactivity of the product was determined by scintillation counting on Topcount (Perkin-Elmer).

| SMILES | IC50 [nM] |
| --- | --- |
| CCOc1c(C(C)n2nc(C)c3c(N)ncnc32)cc(Cl)c(C#N)c1C1CN(c2ccc(-c3cnn(C)n3)nc2)C1 (stereo unspecified) [US11433071, Example 337] | < 10 |
| CCOc1c(C(C)n2nc(C)c3c(N)ncnc32)cc(Cl)c(C#N)c1C1CN(c2ccnc(C(=O)N(C)C)c2)C1 (stereo unspecified) [US11433071, Example 334] | < 10 |
| COc1c([C@H](C)n2cc(C)c(=O)c3c(N)ncnc32)cc(Cl)c(C)c1-c1ccc(C[C@@H](C)O)nc1 [US11433071, Example 362] | < 10 |
| CCOc1c(C(C)n2nc(C)c3c(N)ncnc32)cc(Cl)c(C#N)c1C1CN(c2ccc(-c3nnn(C)n3)nc2)C1 (stereo unspecified) [US11433071, Example 336] | < 10 |
| CCOc1c(C(C)n2nc(C)c3c(N)ncnc32)cc(C)c(C#N)c1C1CN(c2cnn(C)c2)C1 (stereo unspecified) [US11433071, Example 343] | < 10 |
| CCOc1c(C(C)n2nc(C)c3c(N)ncnc32)cc(Cl)c(C#N)c1C1CN(c2cncc(C(=O)N(C)C)c2)C1 (stereo unspecified) [US11433071, Example 331] | < 10 |
| CCOc1c(C(C)n2nc(C)c3c(N)ncnc32)cc(Cl)c(C#N)c1C1CN(c2cncc(C#N)c2)C1 (stereo unspecified) [US11433071, Example 330] | < 10 |

Now from value to molecule:

| IC50 [nM] | SMILES |
| --- | --- |
| < 10 | CCOc1c(C(C)n2nc(C)c3c(N)ncnc32)cc(Cl)c(C#N)c1C1CN(N2CC(C#N)C2)C1 (stereo unspecified) [US11433071, Example 342] |
| < 10 | CCOc1c(C(C)n2nc(C)c3c(N)ncnc32)cc(Cl)c(C#N)c1C1CN(N2CC(COC)C2)C1 (stereo unspecified) [US11433071, Example 341] |
| < 10 | CCOc1c(C(C)n2nc(C)c3c(N)ncnc32)cc(C)c(C#N)c1C1CN(c2cncc(S(C)(=O)=O)c2)C1 (stereo unspecified) [US11433071, Example 335] |

These molecules were tested against T1, Phosphatidylinositol 4,5-bisphosphate 3-kinase catalytic subunit delta isoform (assay: PI3K Enzyme Assay).
Protocol: Materials: Lipid kinase substrate, phosphoinositol-4,5-bisphosphate (PIP2), are purchased from Echelon Biosciences (Salt Lake City, Utah). PI3K isoforms α, β, δ and γ are purchased from Millipore (Bedford, Mass.). ATP, MgCl2, DTT, EDTA, MOPS and CHAPS are purchased from Sigma-Aldrich (St. Louis, Mo.).The kinase reaction are conducted in clear-bottom 96-well plate from Thermo Fisher Scientific in a final volume of 24 μL. Inhibitors are first diluted serially in DMSO and added to the plate wells before the addition of other reaction components. The final concentration of DMSO in the assay is 0.5%. The PI3K assays are carried out at room temperature in 20 mM MOPS, pH 6.7, 10 mM MgCl2, 5 mM DTT and CHAPS 0.03%. The reaction mixture is prepared containing 50 μM PIP2, kinase and varying concentration of inhibitors. Reactions are initiated by the addition of ATP containing 2.2 μCi [γ-33P]ATP to a final concentration of 1000 μM. The final concentration of PI3K isoforms α, β, δ and γ in the assay were 1.3, 9.4, 2.9 and 10.8 nM, respectively. Reactions are incubated for 180 minutes and terminated by the addition of 100 μL of 1 M potassium phosphate pH 8.0, 30 mM EDTA quench buffer. […] After the plate sealing, the radioactivity of the product is determined by scintillation counting on Topcount (Perkin-Elmer). […]

| IC50 [nM] | SMILES |
| --- | --- |
| > 500 | COc1c([C@@H](C)n2cc(C)c(=O)c3c(N)ncnc32)cc(Cl)c(C)c1-c1ccc(C[C@H](C)O)nc1 [US11433071, Example 361] |
